Data on one substance can be found in patent US9433573B2, “Microfabricated nanopore device for sustained release of therapeutic agent” (Delpor, Inc., priority 2001, dated 2016).

Data set [1] can be described thus: In vitro release of 125I-lysozyme from nanopore membrane implants. From the text: (§1) Lysozyme, an enzyme with a molecular weight intermediate between that of glucose and albumin (MW 12,000 Daltons) was used to measure diffusion kinetics through nanopore membranes both in vitro and in vivo. Radiolabeled (^125-I) lysozyme was obtained from ICN Biochemicals. Unlabeled lysozyme was obtained from Sigma Chemical Corp. Radiolabeled lysozyme was admixed with unlabeled lysozyme and loaded into implants as described above for albumin. In vitro release rates for three size membranes are plotted in FIG. 8. Lysozyme release rates are zero-order for membranes pore sizes of 13 nm and 49 nm.

Details of data set [2]: species or system rats. As to conditions: rat, in vivo, sc, 80 ug.
Text: as §1
Blood levels of lysozyme in groups of three rats given either a single subcutaneous bolus of 80 μg or after implantation of a nanopore implant device designed to release lysozyme at a rate of 17 μg/day are shown in FIG. 9.

Regarding lysozyme, the “lysozyme release rates (kinetics)” value in data set [1] (membrane pore sizes of 13 nm and 49 nm, in vitro) is listed as “zero-order”. Also, the “flux of lysozyme versus initial concentration” value in data set [1] (pore size of 13 nm or less, in vitro (data not shown)) is on record as “independent of initial concentration”. Besides, the “apparent half-life in blood stream” value in data set [2] is listed as “less than several days”.
